# Tests used:
# [1] = target: PSKH2 (Homo sapiens, UniProt Q96QS6); experiment: biochemical
# [2] = target: BRDT (Homo sapiens, UniProt Q58F21); experiment: biochemical
# [3] = target: T1, PIK3R4 (Homo sapiens, UniProt Q99570); experiment: Imatinib-matrix competition in K562 lysate; type: binding; conditions: read-out: RB50 (the source's name)
# T1 construct: endogenous in cells; host or cells: K562
# [4] = target: T2, TAF1L (Homo sapiens, UniProt Q8IZX4); experiment: KAM-matrix competition in K562 lysate; type: binding; conditions: relative to 0 uM KAM = 0;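 further: median log10 fold change of treatment over DMSO control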
# T2 construct: endogenous in cells; host or cells: K562
# Protocol: Supplement 12953_2017_125_MOESM1_ESM.zip/MS_Supp Info.xlsx, sheet "KAM" | column: 1 uM KAM; 0.01 uM KAM
# [5] = target: ATM (Homo sapiens, UniProt Q13315); experiment: KAM-matrix competition in K562 lysate; type: binding; design: endogenous in cells; host or cells: K562;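 on 0.001 uM KAM: median log10 fold change of treatment over DMSO control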;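 on 0.01 uM KAM: median log10 fold change of treatment over DMSO control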;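 on 0.1 uM KAM: median log10 fold change of treatment over DMSO control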;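 on 1 uM KAM: median log10 fold change of treatment over DMSO control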;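 on 10 uM KAM: median log10 fold change of treatment over DMSO control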
# ATM, sequence (Q13315 whole entry): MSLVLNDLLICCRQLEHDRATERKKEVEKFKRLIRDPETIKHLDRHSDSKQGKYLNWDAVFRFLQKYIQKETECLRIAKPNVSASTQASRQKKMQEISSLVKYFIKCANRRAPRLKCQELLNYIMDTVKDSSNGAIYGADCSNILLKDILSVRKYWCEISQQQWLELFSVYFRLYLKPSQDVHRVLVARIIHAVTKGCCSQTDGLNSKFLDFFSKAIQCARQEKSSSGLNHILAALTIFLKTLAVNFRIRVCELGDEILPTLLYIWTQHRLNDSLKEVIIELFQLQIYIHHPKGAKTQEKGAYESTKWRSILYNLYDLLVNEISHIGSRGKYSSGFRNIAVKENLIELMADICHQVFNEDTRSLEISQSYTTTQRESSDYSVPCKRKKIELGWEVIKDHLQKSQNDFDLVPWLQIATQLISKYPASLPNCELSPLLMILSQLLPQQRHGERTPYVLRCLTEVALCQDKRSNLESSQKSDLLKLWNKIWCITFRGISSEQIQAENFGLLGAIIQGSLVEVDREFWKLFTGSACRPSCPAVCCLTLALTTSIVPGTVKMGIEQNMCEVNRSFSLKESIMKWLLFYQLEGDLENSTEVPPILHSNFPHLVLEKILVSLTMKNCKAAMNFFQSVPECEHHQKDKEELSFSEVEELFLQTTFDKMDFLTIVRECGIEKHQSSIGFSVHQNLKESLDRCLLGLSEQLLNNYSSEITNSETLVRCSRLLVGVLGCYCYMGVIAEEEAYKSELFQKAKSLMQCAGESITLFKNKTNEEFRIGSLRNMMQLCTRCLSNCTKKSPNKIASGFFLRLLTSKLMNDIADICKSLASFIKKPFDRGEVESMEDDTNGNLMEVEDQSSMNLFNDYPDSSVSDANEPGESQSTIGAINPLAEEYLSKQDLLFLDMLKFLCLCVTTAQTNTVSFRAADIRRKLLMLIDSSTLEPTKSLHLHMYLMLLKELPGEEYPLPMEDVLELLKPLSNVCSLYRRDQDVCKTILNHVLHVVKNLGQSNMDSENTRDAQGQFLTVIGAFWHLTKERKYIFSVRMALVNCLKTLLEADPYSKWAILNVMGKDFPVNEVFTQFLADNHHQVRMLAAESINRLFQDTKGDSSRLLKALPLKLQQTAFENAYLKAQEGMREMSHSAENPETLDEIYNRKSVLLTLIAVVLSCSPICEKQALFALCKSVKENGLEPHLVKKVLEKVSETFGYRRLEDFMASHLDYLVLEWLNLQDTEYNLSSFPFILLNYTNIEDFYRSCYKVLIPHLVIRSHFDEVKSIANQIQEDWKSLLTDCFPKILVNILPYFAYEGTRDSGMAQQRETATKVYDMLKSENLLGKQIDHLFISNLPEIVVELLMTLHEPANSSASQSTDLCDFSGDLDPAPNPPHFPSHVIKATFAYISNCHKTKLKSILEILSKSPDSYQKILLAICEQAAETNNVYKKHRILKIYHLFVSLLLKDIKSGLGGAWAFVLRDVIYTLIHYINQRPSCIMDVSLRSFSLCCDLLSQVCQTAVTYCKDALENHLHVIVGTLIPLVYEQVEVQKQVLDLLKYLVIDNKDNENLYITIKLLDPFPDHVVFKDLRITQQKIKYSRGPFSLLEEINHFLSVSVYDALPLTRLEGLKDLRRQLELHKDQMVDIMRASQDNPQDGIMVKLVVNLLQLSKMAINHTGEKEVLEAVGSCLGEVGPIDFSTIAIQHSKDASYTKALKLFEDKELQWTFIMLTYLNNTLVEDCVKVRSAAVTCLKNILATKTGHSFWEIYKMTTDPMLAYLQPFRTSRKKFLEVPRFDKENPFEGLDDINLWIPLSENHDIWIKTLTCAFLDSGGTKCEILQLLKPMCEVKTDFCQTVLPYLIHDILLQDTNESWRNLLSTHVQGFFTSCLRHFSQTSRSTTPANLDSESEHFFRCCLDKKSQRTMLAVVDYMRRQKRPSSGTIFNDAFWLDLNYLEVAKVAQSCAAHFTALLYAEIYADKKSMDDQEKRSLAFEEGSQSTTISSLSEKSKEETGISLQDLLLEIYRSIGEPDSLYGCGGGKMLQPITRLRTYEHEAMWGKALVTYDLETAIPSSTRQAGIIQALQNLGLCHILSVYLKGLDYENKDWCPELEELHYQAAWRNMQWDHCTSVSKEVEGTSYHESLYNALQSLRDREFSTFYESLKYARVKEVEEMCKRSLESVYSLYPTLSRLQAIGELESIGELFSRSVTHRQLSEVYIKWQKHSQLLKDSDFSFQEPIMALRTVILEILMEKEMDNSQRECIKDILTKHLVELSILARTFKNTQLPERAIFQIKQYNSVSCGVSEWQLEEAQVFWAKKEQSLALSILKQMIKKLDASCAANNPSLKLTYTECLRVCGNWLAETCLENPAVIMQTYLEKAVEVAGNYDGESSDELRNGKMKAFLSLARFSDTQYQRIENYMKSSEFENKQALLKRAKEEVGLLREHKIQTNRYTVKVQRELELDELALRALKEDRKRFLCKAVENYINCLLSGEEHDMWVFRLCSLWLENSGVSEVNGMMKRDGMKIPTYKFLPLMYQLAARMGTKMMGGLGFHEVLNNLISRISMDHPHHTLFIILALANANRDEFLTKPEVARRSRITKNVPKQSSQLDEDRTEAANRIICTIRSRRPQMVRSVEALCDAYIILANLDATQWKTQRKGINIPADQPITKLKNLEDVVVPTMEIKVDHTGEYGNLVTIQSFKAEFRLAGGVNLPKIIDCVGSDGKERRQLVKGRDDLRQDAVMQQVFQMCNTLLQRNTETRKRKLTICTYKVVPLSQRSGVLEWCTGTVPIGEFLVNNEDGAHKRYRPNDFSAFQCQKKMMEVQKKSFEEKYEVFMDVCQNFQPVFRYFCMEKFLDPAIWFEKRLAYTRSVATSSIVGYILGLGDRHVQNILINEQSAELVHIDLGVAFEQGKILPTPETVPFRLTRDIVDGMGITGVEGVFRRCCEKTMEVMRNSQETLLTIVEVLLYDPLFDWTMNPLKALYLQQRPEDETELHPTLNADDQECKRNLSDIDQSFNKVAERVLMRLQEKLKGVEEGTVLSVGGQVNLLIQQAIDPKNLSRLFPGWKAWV
# Protocol: (§1) Supplement 12953_2017_125_MOESM1_ESM.zip/MS_Supp Info.xlsx, sheet "KAM" | column: 10 uM KAM; 1 uM KAM; 0.1 uM KAM; 0.01 uM KAM; 0.001 uM KAM; RB50
# [6] = target: T3, SCYL1 (Homo sapiens, UniProt Q96KG9); experiment: KAM-matrix competition in K562 lysate; type: binding; design: endogenous in cells; host or cells: K562;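 on 0.001 uM KAM: median log10 fold change of treatment over DMSO control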;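 on 0.01 uM KAM: median log10 fold change of treatment over DMSO control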;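 on 0.1 uM KAM: median log10 fold change of treatment over DMSO control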;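 on 1 uM KAM: median log10 fold change of treatment over DMSO control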;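 on 10 uM KAM: median log10 fold change of treatment over DMSO control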
# T3 sequence (Q96KG9 1-808): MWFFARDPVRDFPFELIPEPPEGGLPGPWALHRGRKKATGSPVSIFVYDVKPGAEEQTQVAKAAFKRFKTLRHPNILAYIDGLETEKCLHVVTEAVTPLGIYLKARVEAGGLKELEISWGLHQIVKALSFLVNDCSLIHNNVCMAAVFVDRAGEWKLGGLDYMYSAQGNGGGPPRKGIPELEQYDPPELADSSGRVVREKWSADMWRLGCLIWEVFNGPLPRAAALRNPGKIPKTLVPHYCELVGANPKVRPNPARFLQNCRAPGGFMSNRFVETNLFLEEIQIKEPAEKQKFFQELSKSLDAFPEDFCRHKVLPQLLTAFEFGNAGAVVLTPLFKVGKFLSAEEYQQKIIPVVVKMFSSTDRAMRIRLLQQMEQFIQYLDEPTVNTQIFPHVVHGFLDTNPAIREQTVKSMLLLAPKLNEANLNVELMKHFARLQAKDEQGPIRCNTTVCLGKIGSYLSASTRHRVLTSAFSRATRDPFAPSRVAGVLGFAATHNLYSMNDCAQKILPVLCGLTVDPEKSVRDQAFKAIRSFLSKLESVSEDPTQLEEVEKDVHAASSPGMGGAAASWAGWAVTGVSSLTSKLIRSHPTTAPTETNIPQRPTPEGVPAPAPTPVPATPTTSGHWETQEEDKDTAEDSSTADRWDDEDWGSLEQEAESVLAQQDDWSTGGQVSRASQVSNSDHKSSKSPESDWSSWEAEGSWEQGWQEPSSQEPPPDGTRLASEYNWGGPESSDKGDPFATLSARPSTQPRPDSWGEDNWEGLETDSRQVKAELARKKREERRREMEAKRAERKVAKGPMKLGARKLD
# Protocol: as §1
# [7] = system: ABL1; experiment: KAM-matrix competition in K562 lysate; type: binding, human
# Protocol: For synthesis of KAM-derivatized resin, packed NHS-activated sepharose 4 fast flow resin (volume = 2 mL; GE Healthcare) was washed with anhydrous DMSO (3 × 10 mL). To the washed NHS-activated sepharose resin was added 0.5 mM KAM in anhydrous DMSO (8 mL; 2 μmol compound/mL of resin), followed by the addition of triethylamine (30 μL). The reaction mixture was vortexed to mix and pelleted by centrifugation (100 x g, 2 min). An aliquot of the supernatant (50 μL) was saved for LC/MS analysis. The reaction mixture was allowed incubate overnight at room temp with end-over-end rotating agitation. On the following day, the reaction mixture was pelleted by centrifugation (100 x g, 2 min). An aliquot of the supernatant (50 μL) was saved for LC/MS analysis. […] 2-(2-Aminoethoxy)ethanol (100 μL; Sigma-Aldrich) was added to the reaction mixture, vortexed, and incubate overnight at room temp with end-over-end agitation. The KAM-derivatized resin was then washed with anhydrous DMSO (3 × 10 mL) and 95% EtOH (3 × 10 mL).
# Data were visualized for further analysis using Spotfire DXP.
# [8] = target: T4, MAP3K11 (Homo sapiens, UniProt Q16584); experiment: KAM-matrix competition in K562 lysate; type: binding; conditions: relative to 0 uM KAM = 0;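 further: median log10 fold change of treatment over DMSO control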
# T4 construct: endogenous in cells; host or cells: K562
# T4 sequence (Q16584 whole entry): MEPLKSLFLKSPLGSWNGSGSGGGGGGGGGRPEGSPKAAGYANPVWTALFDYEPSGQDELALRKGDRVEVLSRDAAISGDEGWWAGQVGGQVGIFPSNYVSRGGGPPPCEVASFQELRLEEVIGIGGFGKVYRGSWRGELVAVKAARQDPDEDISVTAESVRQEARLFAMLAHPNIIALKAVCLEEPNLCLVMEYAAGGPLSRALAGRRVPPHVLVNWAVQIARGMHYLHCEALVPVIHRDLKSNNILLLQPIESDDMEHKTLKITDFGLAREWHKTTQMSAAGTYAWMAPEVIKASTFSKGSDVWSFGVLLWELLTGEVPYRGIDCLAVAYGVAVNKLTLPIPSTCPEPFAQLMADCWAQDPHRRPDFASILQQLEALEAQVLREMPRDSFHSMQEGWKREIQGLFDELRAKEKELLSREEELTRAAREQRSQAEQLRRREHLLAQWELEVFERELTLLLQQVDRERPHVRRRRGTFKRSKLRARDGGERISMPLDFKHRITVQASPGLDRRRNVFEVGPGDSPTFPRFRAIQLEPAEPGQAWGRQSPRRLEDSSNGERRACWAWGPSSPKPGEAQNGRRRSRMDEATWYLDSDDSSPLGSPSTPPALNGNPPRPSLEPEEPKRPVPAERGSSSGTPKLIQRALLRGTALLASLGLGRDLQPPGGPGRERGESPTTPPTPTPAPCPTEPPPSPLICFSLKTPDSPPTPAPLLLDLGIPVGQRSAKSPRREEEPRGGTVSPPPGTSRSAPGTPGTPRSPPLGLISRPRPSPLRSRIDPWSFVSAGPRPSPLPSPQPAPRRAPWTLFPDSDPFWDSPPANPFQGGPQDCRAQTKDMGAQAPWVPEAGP
# Protocol: (§2) Supplement 12953_2017_125_MOESM1_ESM.zip/MS_Supp Info.xlsx, sheet "KAM" | column: 10 uM KAM; 1 uM KAM; 0.1 uM KAM; 0.001 uM KAM
# [9] = target: T5, CDK6 (Homo sapiens, UniProt Q00534); experiment: KAM-matrix competition in K562 lysate; type: binding; conditions: relative to 0 uM KAM = 0;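 further: median log10 fold change of treatment over DMSO control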
# T5 construct: endogenous in cells; host or cells: K562
# T5 sequence (Q00534 whole entry): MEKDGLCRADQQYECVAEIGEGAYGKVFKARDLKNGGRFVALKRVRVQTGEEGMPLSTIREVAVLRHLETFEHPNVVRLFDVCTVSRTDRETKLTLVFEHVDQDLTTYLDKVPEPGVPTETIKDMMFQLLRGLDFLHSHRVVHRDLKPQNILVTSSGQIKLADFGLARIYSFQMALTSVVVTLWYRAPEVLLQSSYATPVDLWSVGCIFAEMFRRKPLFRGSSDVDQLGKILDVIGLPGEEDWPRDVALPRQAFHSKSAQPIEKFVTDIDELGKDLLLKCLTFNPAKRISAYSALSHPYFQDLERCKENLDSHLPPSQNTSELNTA
# Protocol: as §2
# [10] = target: T6, RPS6KA3 (Homo sapiens, UniProt P51812); experiment: KAM-matrix competition in K562 lysate; type: binding;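 on 0.001 uM KAM: median log10 fold change of treatment over DMSO control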;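 on 0.01 uM KAM: median log10 fold change of treatment over DMSO control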;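 on 0.1 uM KAM: median log10 fold change of treatment over DMSO control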;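 on 1 uM KAM: median log10 fold change of treatment over DMSO control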;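 on 10 uM KAM: median log10 fold change of treatment over DMSO control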
# T6 construct: endogenous in cells; host or cells: K562
# T6 sequence (P51812 whole entry): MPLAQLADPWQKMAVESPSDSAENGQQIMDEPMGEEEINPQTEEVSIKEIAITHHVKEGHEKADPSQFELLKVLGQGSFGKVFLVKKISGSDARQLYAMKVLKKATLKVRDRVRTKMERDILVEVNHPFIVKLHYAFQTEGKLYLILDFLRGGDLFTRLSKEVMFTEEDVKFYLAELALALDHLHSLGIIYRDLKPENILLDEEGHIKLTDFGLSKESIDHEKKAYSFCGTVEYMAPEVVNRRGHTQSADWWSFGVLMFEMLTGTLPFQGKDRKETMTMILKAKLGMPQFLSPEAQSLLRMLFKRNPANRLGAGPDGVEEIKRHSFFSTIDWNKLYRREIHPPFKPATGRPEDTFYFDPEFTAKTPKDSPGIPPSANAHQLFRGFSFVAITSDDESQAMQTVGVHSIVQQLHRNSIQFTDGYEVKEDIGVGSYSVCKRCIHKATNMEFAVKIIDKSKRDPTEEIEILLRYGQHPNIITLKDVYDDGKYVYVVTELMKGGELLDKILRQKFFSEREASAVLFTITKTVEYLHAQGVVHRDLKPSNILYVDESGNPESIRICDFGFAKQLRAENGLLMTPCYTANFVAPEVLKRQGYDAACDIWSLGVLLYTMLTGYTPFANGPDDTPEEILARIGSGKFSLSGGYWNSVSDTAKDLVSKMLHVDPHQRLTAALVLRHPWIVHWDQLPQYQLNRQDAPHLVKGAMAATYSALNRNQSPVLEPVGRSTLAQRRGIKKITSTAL
# Protocol: as §1
# [11] = KAM 0.001-10 uM, read-out: RB50 (the source's name)
smiles,measurement,setting,value
Cc1ccc(NC(=O)c2ccc(CN3CCN(C)CC3)cc2)cc1Nc1nccc(-c2cccnc2)n1 [Imatinib],IC50,[1],> 10 µM
same,IC50,[2],> 10 µM
same,IC50,[3],> 10 µM
N#CCc1ccc(Nc2nc(NCCCN)cc(Nc3cc(C4CC4)[nH]n3)n2)cc1 [KAM],0.01 uM KAM,[4],0.1793
same,1 uM KAM,[4],-0.2683
same,IC50,[5]; [11],> 10 µM
same,0.001 uM KAM,[5]; relative to 0 uM KAM = 0,-0.06745
same,0.01 uM KAM,[5]; relative to 0 uM KAM = 0,-0.02165
same,0.1 uM KAM,[5]; relative to 0 uM KAM = 0,-0.03764
same,1 uM KAM,[5]; relative to 0 uM KAM = 0,-0.07001
same,10 uM KAM,[5]; relative to 0 uM KAM = 0,0.01755
same,IC50,[6]; [11],> 10 µM
same,0.001 uM KAM,[6]; relative to 0 uM KAM = 0,0.01527
same,0.01 uM KAM,[6]; relative to 0 uM KAM = 0,0.01732
same,0.1 uM KAM,[6]; relative to 0 uM KAM = 0,0.09163
same,1 uM KAM,[6]; relative to 0 uM KAM = 0,0.1255
same,10 uM KAM,[6]; relative to 0 uM KAM = 0,0.1065
same,median Log10 fold change,[7]; 0.001 uM KAM,-0.005017
same,median Log10 fold change,[7]; 0.01 uM KAM,-0.004253
same,median Log10 fold change,[7]; 0.1 uM KAM,-0.1612
same,median Log10 fold change,[7]; 1 uM KAM,-0.353
same,median Log10 fold change,[7]; 10 uM KAM,-0.4826
same,IC50,"[7]; ABL1, KAM-based affinity matrix, K562 lysates, read-out: RB50 (the source's name)",0.759 µM
same,0.001 uM KAM,[8],-0.02883
same,0.1 uM KAM,[8],-0.2112
same,1 uM KAM,[8],-0.4525
same,10 uM KAM,[8],-0.59
same,0.001 uM KAM,[9],0.01418
same,0.1 uM KAM,[9],-0.05531
same,1 uM KAM,[9],-0.08871
same,10 uM KAM,[9],-0.05328
same,IC50,[10]; [11],> 10 µM
same,0.001 uM KAM,[10]; relative to 0 uM KAM = 0,-0.01612
same,0.01 uM KAM,[10]; relative to 0 uM KAM = 0,-0.01929
same,0.1 uM KAM,[10]; relative to 0 uM KAM = 0,-0.05841
same,1 uM KAM,[10]; relative to 0 uM KAM = 0,-0.1372
same,10 uM KAM,[10]; relative to 0 uM KAM = 0,-0.2816

# From article PMC5513037, “Examining the influence of specificity ligands and ATP-competitive ligands on the overall effectiveness of bivalent kinase inhibitors” (Proteome Science, 2017)
